Laboratory results reported in patent publication US20230173018A1, “CASPOFUNGIN DERIVATIVES AND ASSAYS FOR EVALUATING ANTIFUNGAL TREATMENT EFFICACY” (priority 2020, published 2023).
≈ marks a conversion by molar mass, not a printed value.

Key:
Type in all cases: cell-based
[1] = system: C. glabrata T-985 (11-076); experiment: microbe, parasite or virus in culture; conditions: Nakaseomyces glabratus; strain no. 49, T-985 (11-076), clinical isolate; read-out: MIC
Excerpt: (§1) The antifungal activities of compounds 1a, 1 and 2 (collectively: caspofungin derivatives) were compared to that of caspofungin and CSF-BOD using a panel of 49 C. albicans and C. glabrata strains (Tables 1 and 2). The panel included ATCC strains and clinical isolates as well a collection of caspofungin-responsive strains and their corresponding isogenic caspofungin-resistant derivatives, constructed by introducing point mutations within and near the defined hotspots in the FKS1 and/or FKS2 genes of the GS complex. Minimal inhibitory concentration (MIC) values for all strains were determined using the broth double dilution method and are summarized in FIG. 2 and Table 2. […] The clinical breakpoints (threshold) for caspofungin-resistance in C. albicans and C. glabrata are 1 μg/mL and 0.5 μg/mL, respectively.

C. glabrata TGL00065 = experiment: microbe, parasite or virus in culture; conditions: Nakaseomyces glabratus, TGL00065
Excerpt: as §1

C. glabrata TGL00277 = experiment: microbe, parasite or virus in culture; conditions: Nakaseomyces glabratus, TGL00277
Excerpt: as §1

C. glabrata TGL00263 = experiment: microbe, parasite or virus in culture; conditions: Nakaseomyces glabratus, TGL00263
Excerpt: as §1

C. glabrata TGL00293 = experiment: microbe, parasite or virus in culture; conditions: Nakaseomyces glabratus, TGL00293
Excerpt: as §1

C. glabrata TGL00258 = experiment: microbe, parasite or virus in culture; conditions: Nakaseomyces glabratus, TGL00258
Excerpt: as §1

C. albicans SN95 = experiment: microbe, parasite or virus in culture; conditions: Candida albicans; strain no. 8, SN95, parental RM1000; read-out: MIC
Excerpt: as §1

C. glabrata TGL00054 = experiment: microbe, parasite or virus in culture; conditions: Nakaseomyces glabratus, TGL00054
Excerpt: as §1

C. glabrata TGL00264 = experiment: microbe, parasite or virus in culture; conditions: Nakaseomyces glabratus, TGL00264
Excerpt: as §1

C. glabrata TGL00275 = experiment: microbe, parasite or virus in culture; conditions: Nakaseomyces glabratus, TGL00275
Excerpt: as §1

[2] = system: C. albicans T-2069 (DP-85); experiment: microbe, parasite or virus in culture; conditions: Candida albicans
Excerpt: as §1

[3] = system: C. albicans DPL1015 (DP-A15); experiment: microbe, parasite or virus in culture; conditions: Candida albicans, SC5314
Excerpt: as §1

[4] = system: C. albicans T-2068 (DP-C42); experiment: microbe, parasite or virus in culture; conditions: Candida albicans, SC5314
Excerpt: as §1

C. glabrata ATCC 90030 = experiment: MIC, broth double dilution; conditions: Nakaseomyces glabratus, ATCC90030
Excerpt: as §1

C. glabrata CST109 = experiment: MIC, broth double dilution; conditions: Nakaseomyces glabratus; strain no. 18, C. glabrata CST109 (parental); read-out: MIC
Excerpt: as §1

C. albicans SC5314 = experiment: MIC, broth double dilution; conditions: Candida albicans; strain no. 1, C. albicans SC5314, WT; read-out: MIC
Excerpt: as §1

C. albicans ATCC 10231 = experiment: MIC, broth double dilution; conditions: Candida albicans, ATCC10231
Excerpt: as §1

C. glabrata CST34 = experiment: MIC, broth double dilution; conditions: Nakaseomyces glabratus; strain no. 21, C. glabrata CST34 (parental); read-out: MIC
Excerpt: as §1

C. glabrata BG2 = experiment: MIC, broth double dilution; conditions: Nakaseomyces glabratus; strain no. 34, C. glabrata BG2; read-out: MIC
Excerpt: as §1

C. glabrata T-192 (1775) = experiment: MIC, broth double dilution; conditions: Nakaseomyces glabratus
Excerpt: as §1

C. albicans ATCC 24433 = experiment: MIC, broth double dilution; conditions: Candida albicans, ATCC24433; strain no. 6, C. albicans ATCC 24433; read-out: MIC
Excerpt: as §1

[5] = system: C. glabrata T-984 (11-078); experiment: MIC, broth double dilution; conditions: Nakaseomyces glabratus
Excerpt: as §1

C. albicans SN152 = experiment: MIC, broth double dilution; conditions: Candida albicans; strain no. 5, C. albicans SN152; read-out: MIC
Excerpt: as §1

[6] = system: C. glabrata T-190 (11-304); experiment: MIC, broth double dilution; conditions: Nakaseomyces glabratus
Excerpt: as §1

C. glabrata ATCC 2001 = experiment: MIC, broth double dilution; conditions: Nakaseomyces glabratus, ATCC2001
Excerpt: as §1

C. albicans BWP17 = experiment: MIC, broth double dilution; conditions: Candida albicans; strain no. 9, BWP17, parental RM1000; read-out: MIC
Excerpt: as §1

[7] = system: C. glabrata T-193 (11-282); experiment: MIC, broth double dilution; conditions: Nakaseomyces glabratus
Excerpt: as §1

C. glabrata EF1620 = experiment: MIC, broth double dilution; conditions: Nakaseomyces glabratus; strain no. 31, C. glabrata EF1620; read-out: MIC
Excerpt: as §1

C. glabrata ATCC 66032 = experiment: MIC, broth double dilution; conditions: Nakaseomyces glabratus, ATCC66032; strain no. 40, C. glabrata ATCC 66032; read-out: MIC
Excerpt: as §1

[8] = system: C. glabrata T-982 (11-181); experiment: MIC, broth double dilution; conditions: Nakaseomyces glabratus
Excerpt: as §1

[9] = system: C. glabrata T-983 (11-079); experiment: MIC, broth double dilution; conditions: Nakaseomyces glabratus
Excerpt: as §1

[10] = system: C. glabrata T-191 (11-331); experiment: MIC, broth double dilution; conditions: Nakaseomyces glabratus
Excerpt: as §1

C. glabrata ATCC 15126 = experiment: MIC, broth double dilution; conditions: Nakaseomyces glabratus, ATCC15126
Excerpt: as §1

**Q.** What does the source list for CC[C@H](C)C[C@H](C)CCCCCCCCC(=O)N[C@H]1C[C@@H](O)[C@@H](NCCN)NC(=O)[C@@H]2[C@@H](O)CCN2C(=O)[C@H]([C@H](O)CCN)NC(=O)[C@H]([C@H](O)[C@@H](O)c2ccc(O)cc2)NC(=O)[C@@H]2C[C@@H](O)CN2C(=O)[C@H]([C@@H](C)O)NC1=O [Caspofungin]?
**A.** MIC [1]: 0.125 µg/mL (≈ 0.114 µM); MIC (C. glabrata TGL00065): > 64 µg/mL; MIC (C. glabrata TGL00277): > 64 µg/mL; MIC (C. glabrata TGL00263): 8 µg/mL (≈ 7.32 µM); MIC (C. glabrata TGL00293): > 64 µg/mL; MIC (C. glabrata TGL00258): > 64 µg/mL; MIC (C. albicans SN95): 0.063 µg/mL (≈ 0.0576 µM); MIC (C. glabrata TGL00054): > 64 µg/mL; MIC (C. glabrata TGL00264): 2 µg/mL (≈ 1.83 µM); MIC (C. glabrata TGL00275): 8 µg/mL (≈ 7.32 µM); MIC [2]: 16 µg/mL (≈ 14.6 µM); MIC [3]: 4 µg/mL (≈ 3.66 µM); MIC [4]: 16 µg/mL (≈ 14.6 µM); MIC (C. glabrata ATCC 90030): 0.125 µg/mL (≈ 0.114 µM); MIC (C. glabrata CST109): 0.125 µg/mL (≈ 0.114 µM); MIC (C. albicans SC5314): 0.031 µg/mL (≈ 0.0284 µM); MIC (C. albicans ATCC 10231): 0.125 µg/mL (≈ 0.114 µM); MIC (C. glabrata CST34): 0.063 µg/mL (≈ 0.0576 µM); MIC (C. glabrata BG2): 0.125 µg/mL (≈ 0.114 µM); MIC (C. glabrata T-192 (1775)): 0.063 µg/mL (≈ 0.0576 µM); MIC (C. albicans ATCC 24433): 0.063 µg/mL (≈ 0.0576 µM); MIC [5]: 0.063 µg/mL (≈ 0.0576 µM); MIC (C. albicans SN152): 0.031 µg/mL (≈ 0.0284 µM); MIC [6]: 0.063 µg/mL (≈ 0.0576 µM); MIC (C. glabrata ATCC 2001): 0.125 µg/mL (≈ 0.114 µM); MIC (C. albicans BWP17): 0.031 µg/mL (≈ 0.0284 µM); MIC [7]: 0.125 µg/mL (≈ 0.114 µM); MIC (C. glabrata EF1620): 0.063 µg/mL (≈ 0.0576 µM); MIC (C. glabrata ATCC 66032): 0.125 µg/mL (≈ 0.114 µM); MIC [8]: 0.063 µg/mL (≈ 0.0576 µM); MIC [9]: 0.063 µg/mL (≈ 0.0576 µM); MIC [10]: 0.063 µg/mL (≈ 0.0576 µM); MIC (C. glabrata ATCC 15126): 0.125 µg/mL (≈ 0.114 µM)
